The source of these data is US8134015B2, “Compound inhibiting in vivo phosphorous transport and medicine containing the same” (Kyowa Hakko Kirin Co., Ltd., priority 2003, dated 2012).

pIC50: −log10 of the molar value.

As a reminder, the pIC50 is the negative decadic logarithm of the IC50, by convention in mol/L. Usually inhibition stands for the share of the control response that was lost under treatment. Lower therefore signals a weak effect.

One test concerns the target T1, rat NaPi-2b (Rattus norvegicus, UniProt Q9JJ09).
T1 construct: expressed in transfected cells; host or cells: Xenopus oocytes injected with cRNA
T1 sequence (Q9JJ09 1-695): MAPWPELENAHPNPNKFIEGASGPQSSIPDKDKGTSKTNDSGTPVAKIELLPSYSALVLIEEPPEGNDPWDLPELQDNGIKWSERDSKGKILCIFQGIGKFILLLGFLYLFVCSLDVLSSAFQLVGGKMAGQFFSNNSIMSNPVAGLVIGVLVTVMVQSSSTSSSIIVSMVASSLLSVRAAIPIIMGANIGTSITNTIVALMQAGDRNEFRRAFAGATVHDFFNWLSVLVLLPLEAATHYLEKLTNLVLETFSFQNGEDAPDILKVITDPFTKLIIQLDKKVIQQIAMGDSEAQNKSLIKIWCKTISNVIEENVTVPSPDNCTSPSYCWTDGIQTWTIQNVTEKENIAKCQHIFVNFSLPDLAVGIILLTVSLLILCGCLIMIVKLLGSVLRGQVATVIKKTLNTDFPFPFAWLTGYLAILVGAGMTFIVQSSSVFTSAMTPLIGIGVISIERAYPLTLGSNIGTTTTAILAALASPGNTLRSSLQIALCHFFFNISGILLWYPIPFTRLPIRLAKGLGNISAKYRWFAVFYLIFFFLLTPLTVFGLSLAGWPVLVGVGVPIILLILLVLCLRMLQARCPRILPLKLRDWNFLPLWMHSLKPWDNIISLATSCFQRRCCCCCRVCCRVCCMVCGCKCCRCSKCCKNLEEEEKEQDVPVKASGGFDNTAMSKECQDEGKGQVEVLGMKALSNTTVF
Kind of test: Sodium-dependent phosphate uptake of Xenopus oocytes which expressed NaPi-2b (32P). The settings on record: Xenopus oocytes expressing rat NaPi-2b, 32P radioactive phosphorus; read-out: IC50 (phosphate uptake inhibitory activity). The format is cell-based. The protocol:
Pharmacological Test Example 1
Experiment of Sodium-Dependent Phosphate Uptake of Xenopus oocytes which Expressed NaPi-2b
Degenerate primers were prepared from sequences of mouse NaPi-2b disclosed in Hilfiker H. et al., Pro Natl Acad Sci USA, 95 (24): 14564-14569, […] and sequences of human and rat NaPi-2a disclosed in Magagnin S. et al., Proc Natl Aca Sci USA, 90 (13): 5979-5983, 1993. RNA was extracted from the rat small intestine using ISOGEN; manufactured by NIPPON GENE CO., LTD (Japan). 400 bp gene fragments were obtained by PCR using, as a template, a cDNA library prepared with a cDNA synthesis kit (manufactured by STRATAGENE (US)). Thereafter, the above rat small intestine cDNA library was screened using the gene fragment as a probe, and the whole gene sequence of rat NaPi-2b was cloned. cRNA was synthesized from the cloned rat NaPi-2b cDNA with a cRNA synthesis kit (manufactured by Ambion (US)). The synthesized cRNA was injected into Xenopus oocytes (obtained from COPACETIC (Japan)) with a liquid microinjector (manufactured by Drummond (US)) and was cultured for 2 days to express rat NaPi-2b. Thereafter, for a group of derivatives, phosphate uptake inhibitory activity were measured using the Xenopus oocytes with ^32P radioactive phosphorus (manufactured by Daiichi Kagaku Inc. (Japan)). […] The inhibitory activity for 300 μM and 100 μM was determined from the same inhibition curve and expressed in percentage inhibition (%) in Table 5.
Take `COc1ccc(C(=O)Nc2ccccc2C(=O)N/N=C/c2ccc(Cl)c(C(F)(F)F)c2)cc1` [Compound 90, N-[2-(4-Chloro-3-trifluoromethyl-benzylidene-hydrazinocarbonyl)-phenyl]-4-methoxy-benzamide]: the pIC50 was 5.47. For the molecule `O=C(Nc1ccccc1C(=O)N/N=C/c1ccc(F)cc1)c1ccccn1` [Compound 506, Pyridin-2-carboxylic acid [2-(4-fluoro-benzylidene-hydrazinocarbonyl)-phenyl]-amide], the pIC50 is 4.71. Same read-out and setting: then `CCN(CC)CCN(C)Cc1ccc(C(=O)Nc2ccc(Br)cc2C(=O)N/N=C/c2cccc(C)c2)cc1` [Compound 286, N-[4-Bromo-2-(3-methyl-benzylidene-hydrazinocarbonyl)-phenyl]-4-{[(2-diethylamino-ethyl)-methyl-amino]-methyl}-benzamide], with 6.24; and `COc1ccc(/C=N/NC(=O)c2c(C)csc2NC(=O)c2cccc(CN3CCC(N4CCCCC4)CC3)c2)cc1` [Compound 574, 3-[1,4′]Bipiperidinyl-1′-ylmethyl-N-[3-(4-methoxy-benzylidene-hydrazinocarbonyl)-4-methyl-thiophen-2-yl]-benzamide], with 5.16; and `CC1CCN(c2ccc(NC(=O)c3cccc(CSCCO)c3)c(C(=O)N/N=C/c3ccc(Cl)c(C(F)(F)F)c3)c2)CC1` [Compound 1070, N-[2-(4-Chloro-3-trifluoromethyl-benzylidene-hydrazinocarbonyl)-4-(4-methyl-piperidin-1-yl)-phenyl]-3-(2-hydroxy-ethylsulfanylmethyl)-benzamide], with above 6.00. Same read-out and setting: the figure for `COc1ccc(C(=O)Nc2ccc(I)cc2C(=O)N/N=C/c2ccc(Cl)c(C(F)(F)F)c2)cc1OC` [Compound 209, N-[2-(4-Chloro-3-trifluoromethyl-benzylidene-hydrazinocarbonyl)-4-iodo-phenyl]-3,4-dimethoxy-benzamide] is above 6.00.

Consider `Cc1ccc(/C=N/NC(=O)c2cc(OCCCN3CCCCC3)ccc2NC(=O)c2cccc(CSCCO)c2)cc1C` [Compound 1041, N-[2-(3,4-Dimethyl-benzylidene-hydrazinocarbonyl)-4-(3-piperidin-1-yl-propoxy)-phenyl]-3-(2-hydroxy-ethylsulfanylmethyl)-benzamide], for which the pIC50 was 4.99. Still for that read-out and setting: then `O=C(Nc1ccc(Br)cc1C(=O)N/N=C/c1cccc(F)c1)c1cccc(CSc2ccncc2)c1` [Compound 195, N-[4-Bromo-2-(3-fluoro-benzylidene-hydrazinocarbonyl)-phenyl]-3-(pyridin-4-ylsulfanylmethyl)-benzamide], with 6.01.

As to `O=C(Nc1cscc1C(=O)N/N=C/c1ccc(Cl)c(C(F)(F)F)c1)c1cccc(CN2CCN(CCO)CC2)c1` [Compound 983, N-[4-(4-Chloro-3-trifluoromethyl-benzylidene-hydrazinocarbonyl)-thiophen-3-yl]-3-[4-(2-hydroxy-ethyl)-piperazin-1-ylmethyl]-benzamide], the negative logarithm of the IC50 (pIC50) is 5.08. Still for that read-out and setting: the figure for `Cc1cccc(/C=N/NC(=O)c2cc(Cl)ccc2NC(=O)c2cccc(CN(CCO)CCO)c2)c1` [Compound 404, 3-{[Bis-(2-hydroxy-ethyl)-amino]-methyl}-N-[4-chloro-2-(3-methyl-benzylidene-hydrazinocarbonyl)-phenyl]-benzamide] is 5.66; for `COc1ccc(NC(=O)c2ccc(OC)c(OC)c2)c(C(=O)N/N=C/c2ccc(F)cc2)c1` [Compound 142, N-[2-(4-Fluoro-benzylidene-hydrazinocarbonyl)-4-methoxy-phenyl]-3,4-dimethoxy-benzamide] it is 5.04. With `Cc1cccc(/C=N/NC(=O)c2cc(Br)ccc2NC(=O)c2ccc(CN(CC(C)O)CC(C)O)cc2)c1` (stereo not drawn) [Compound 718, 4-{[Bis-(2-hydroxy-propyl)-amino]-methyl}-N-[4-bromo-2-(3-methyl-benzylidene-hydrazinocarbonyl)-phenyl]-benzamide], the pIC50 was 5.16. On the same count and under the same terms, then `O=C(Nc1ccc(N2CCC(O)CC2)cc1C(=O)N/N=C/c1ccc(Cl)c(C(F)(F)F)c1)c1cccc(CSCCO)c1` [Compound 1062, N-[2-(4-Chloro-3-trifluoromethyl-benzylidene-hydrazinocarbonyl)-4-(4-hydroxy-piperidin-1-yl)-phenyl]-3-(2-hydroxy-ethylsulfanylmethyl)-benzamide], with 5.17. The same measure, in the same setting: then `O=C(Nc1ccc(Br)cc1C(=O)N/N=C/c1ccc(F)cc1)c1ccc(CNCCN2CCOCC2)cc1` [Compound 284, N-[4-Bromo-2-(4-fluoro-benzylidene-hydrazinocarbonyl)-phenyl]-4-[(2-morpholin-4-yl-ethylamino)-methyl]-benzamide], with 4.57; and `O=C(Nc1ccc(Br)cc1C(=O)N/N=C/c1ccc(Cl)c(C(F)(F)F)c1)c1ccco1` [Compound 156, Furan-2-carboxylic acid [4-bromo-2-(4-chloro-3-trifluoromethyl-benzylidene-hydrazinocarbonyl)-phenyl]-amide], with 6.34. Same read-out and setting: the figure for `O=C(Nc1ccc(N2CCN(CCO)CC2)cc1C(=O)N/N=C/c1ccc(Cl)c(C(F)(F)F)c1)c1cccc(CSCCO)c1` [Compound 923, N-{2-(4-Chloro-3-trifluoromethyl-benzylidene-hydrazinocarbonyl)-4-[4-(2-hydroxy-ethyl)-piperazin-1-yl]-phenyl}-3-(2-hydroxy-ethylsulfanylmethyl)-benzamide] is 4.73; for `Cc1cccc(/C=N/NC(=O)c2cc(Br)ccc2NC(=O)c2ccc(CSCCCO)cc2)c1` [Compound 275, N-[4-Bromo-2-(3-methyl-benzylidene-hydrazinocarbonyl)-phenyl]-4-(3-hydroxy-propylsulfanylmethyl)-benzamide] it is 5.76; for `O=C(Nc1ccc(Cl)cc1C(=O)N/N=C/c1ccc(Cl)c(C(F)(F)F)c1)c1cccc(C[S+]([O-])Cc2ccco2)c1` (stereo not drawn) [Compound 689, N-[4-Chloro-2-(4-chloro-3-trifluoromethyl-benzylidene-hydrazinocarbonyl)-phenyl]-3-(furan-2-ylmethanesulfinylmethyl)-benzamide] it is above 5.52.

Take `COc1cc(OC)cc(C(=O)Nc2ccc(Br)cc2C(=O)N/N=C/c2ccc(C)cc2)c1` [Compound 119, N-[4-Bromo-2-(4-methyl-benzylidene-hydrazinocarbonyl)-phenyl]-3,5-dimethoxy-benzamide]: the pIC50 is 6.13.

Staying with this test, now noted: phosphate uptake, oocytes expressing rat NaPi-2b; 300 μM, determined from inhibition curve.
In the case of `CCN(CC)CCN(C)Cc1cccc(-c2nc3ccc(N4CCCN(C)CC4)cc3c(=O)n2/N=C/c2ccc(OC)cc2)c1` [Compound 933, 2-(3-{[(2-Diethylamino-ethyl)-methyl-amino]-methyl}-phenyl)-3-[(4-methoxy-benzylidene)-amino]-6-(4-methyl-[1,4]diazepan-1-yl)-3H-quinazolin-4-one], the inhibition at 300 µM came out at 37.6%. Still for that read-out and setting: then `Cc1ccc(/C=N/NC(=O)c2scc(C)c2NC(=O)c2cccc(CN3CCC(O)CC3)c2)cc1C` [Compound 541, N-[2-(3,4-Dimethyl-benzylidene-hydrazinocarbonyl)-4-methyl-thiophen-3-yl]-3-(4-hydroxy-piperidin-1-ylmethyl)-benzamide], with 32.2%; and `Cc1ccc(/C=N/NC(=O)c2c(C)csc2NC(=O)c2cccc(CSCCS(=O)(=O)O)c2)cc1C` [Compound 781, 2-{3-[3-(3,4-Dimethyl-benzylidene-hydrazinocarbonyl)-4-methyl-thiophen-2-ylcarbamoyl]-benzylsulfanyl}-ethanesulfonic acid], with 51.2%; and `COc1ccc(/C=N/NC(=O)c2cc(N3CCCC3=O)ccc2NC(=O)c2cccc(CN(CC(C)O)CC(C)O)c2)cc1` (stereo not drawn) [Compound 946, 3-{[Bis-(2-hydroxy-propyl)-amino]-methyl}-N-[2-(4-methoxy-benzylidene-hydrazinocarbonyl)-4-(2-oxo-pyrrolidin-1-yl)-phenyl]-benzamide], with 45%. Turning to `Cc1cccc(/C=N/NC(=O)c2ccccc2NC(=O)c2cccnc2)c1` [Compound 131, N-[2-(3-Methyl-benzylidene-hydrazinocarbonyl)-phenyl]-nicotinamide], the inhibition at 300 µM was 32.4%.
